Laboratory results as given in patent US20150086618A1, “PHOSPHOLIPID MICELLAR AND LIPOSOMAL COMPOSITIONS AND USES THEREOF” (THE BOARD OF TRUSTEES OF THE UNIVERSITY OF ILLINOIS, priority 2008, published 2015).
“Also recorded” adds a separate entry of the source.

Key:
[1] = test system: TREM-1; experiment: Mouse model of ALI induced by aerosolized LPS, LP17 (Example 13); format: in vivo, Wild-type mice; conditions: 3 nmol s.c.; free peptide 48 and 24 h before LPS, nanomicellar 48 h before LPS
Description: The efficacy of nanomicellar LP17 was tested in a mouse model of ALI induced by aerosolized LPS. Wild-type mice were treated with LP17 or control peptide and with LP17 or control peptide self-associated with nanomicelles (each, 3 nmol; a dose similar to that used in previous experiments). Free peptides were administered subcutaneously 48 and 24 h before administration of LPS. Peptides self-associated with nanomicelles were administered to the mice only 48 h before LPS nebulization. Mice were exposed to nebulized LPS in a dose of 1 mg/ml for 40 min as previously described (Sadikot et al., Am. J. Respir. Crit. Care Med. 164: 873-8, 2001.) Control mice were treated with nebulized endotoxin-free PBS. TREM-1 was induced in lungs of mice at 4 hours after treatment with LPS. After 4 h, a bronchoalveolar lavage was carried out to determine total cell count and neutrophil count. Lungs, liver, and spleen were harvested from the mice and frozen for RNA and protein extraction. Real-time RT-PCR was carried out to analyze fold induction in TREM-1 gene expression.

[2] = α-helicity of LP17 and control peptide in saline and SSM; format: physicochemical; conditions: peptide 20 μM, SSM 5 mM
Description: The α-helicity of LP17 (20 μM) in saline and in SSM (5 mM) was tested. A control peptide ([…] (SEQ ID NO:2)) was also tested in saline and in SSM at the same concentrations.

[3] = Fluorescence anisotropy of GLP-1(7-36) in SSM / SSMM or saline; format: physicochemical; conditions: GLP-1(7-36) 125 μM in saline; n=3
Description: Fluorescence anisotropy. […] The data indicated an increased viscosity of the peptide surrounding in the presence of SSM in contrast to saline.
This hypothesis was studied via determination of peptide fluorimetric anisotropy in the presence and absence of nanomicelles. This technique measures rigidity (or rotational freedom) of fluorophores by intensity of emitted fluorescence polarized parallel and perpendicular to that of excitation beam. A molecule that is restricted in its rotational motion due to viscous environment will emit fluorescence that is predominantly parallel to its excitation light source, giving a high anisotropy value.

[4] = Hydrophilicity/hydrophobicity balance of peptide; format: physicochemical
[5] = test system: ALI mice; experiment: LPS-nebulization acute lung injury model, treatment after start of LPS (Example 7); format: in vivo; conditions: cardiac puncture at conclusion of treatment; LPS-exposed mice
Description: Mice are induced with acute lung injury (ALI) by treatment with lipopolysaccharide (LPS) nebulization (as described by Sadikot et al. […]: 873-8, 2001; Koay et al., Am. J. Respir. Cell Mol. Biol. 26: 572-8, 2002). […]
A dose of drug was administered subcutaneously (s.c.) 30 min after initialization of aerosolized LPS nebulization. […] All mice were sacrificed 4 hr after completion of nebulization. For each animal, bronchoalveolar lavage was carried out and the lungs were removed for analysis. Data from untreated (control) mice (no LPS nebulization or drug treatment) was also included in the data analysis for comparison.

[6] = Blood glucose in mice with LPS-induced ALI (Example 17); format: in vivo; conditions: LPS-exposed mice, GLP-1 1250 μg/kg, cardiac puncture at conclusion
Description: Blood was obtained by cardiac puncture at the conclusion of the treatment. Median glucose concentration was 109, 183, 157, and 125 mg/dl, respectively.

[7] = Dynamic light scattering (NICOMP) particle size of PxB, PxB with DSPE-PEG2000 and SSM in saline; format: physicochemical; conditions: for particle size distribution with scale 10-10,000 nm: 6.9 mM PxB in saline, 2 hours, 25° C.
Description: In order to determine the optimum peptide to lipid ratio of PxB to SSM, fluorescence spectroscopy and NICOMP analysis were carried out on PxB at varying concentrations in sterile normal saline (SNS) and with DSPE-PEG2000 at a fixed concentration. In these experiments, PxB Sulphate (MW […], Research Products International Corp, Cat: P40160-1.0, Lot#003746), DSPE-PEG2000 (MW 2811 g/mol, Lipoid, Cat#PE18:0/18:0/PEG 2000, Lot#899346-1/10), Methanol, and HEPES Buffer (pH˜7.4) were used. Controls: SSM (1 mM) and Samples: PxB-SSM (1:1000) were prepared.
Specifically, PxB (at various concentrations ranging from 0.5 mM to 6.9 mM) in sterile normal saline (SNS) was incubated with DSPE-PEG2000 (1 mM). Stock solutions of PxB and DSPE-PEG2000 were prepared and equilibrated for 2 hours. After the 2 hour equilibration, stock solutions were characterized by dynamic light scattering (DLS) using the NICOMP 380 Submicron Particle Sizer (Particle Sizing Systems, Inc. Santa Barbara, Calif.). […] A SSM sample (1 mM) (n=1) was prepared in saline alone for comparison with the PxB-SSM samples. Concurrent samples of PxB (0.5, 1.0, 2.3 and 6.9 mM) were prepared in saline alone or with SSM (DSPE-PEG2000, 1 mM) (n=8). The samples were measured for 30 minutes using DLS at approximately 2, 24, and 48 hours after time 0.

[8] = DSPE-PEG2000:PxB saturation ratio by fluorescence spectroscopy; format: physicochemical; conditions: at saturation point
Description: To determine the saturation point for DSPE-PEG2000 with PxB, fluorescence spectroscopy was carried out. PxB concentration was fixed at 50 μM and the concentration of DSPE-PEG2000 was varied to allow DSPE-PEG2000:PxB ratios of 1:1, 3:1, 6:1, 10:1, 20:1, 60:1, and 100:1. A stock solution of DSPE-PEG2000 was prepared and allowed to equilibrate at 25° C. in the dark under argon gas for two hours. A stock solution of PxB (100 μM) was prepared in HEPES Buffer. Samples were prepared by pipetting the appropriate amount of buffer and stock solutions into each vial. Fluorescence measurements were made after allowing each sample to equilibrate for 1 hour in the dark at 25° C. 400 μl of each sample was measured three times by the spectrofluorometer. The maximum intensity of each sample was recorded from the spectrofluorometer and analyzed using Microsoft Excel and Sigma Plot.
To fit a curve to the graph of the data the equation was used because its shape best fit the data, where
When the lipid to peptide ratio approaches infinity, a plateau is reached in terms of the fluorescence intensity and the equation becomes where yp is the height of the plateau. […]
Using this value as y, the lipid to peptide saturation point can be calculated by substituting the values into the equation and solving for x, […]

## LQVTDSGLYRCVIYHPP (SEQ ID NO: 1) (listed as Mus musculus) [LP17]
[1]
  expression of TREM-1 mRNA: attenuated
[2]
  percent α-helicity in SSM compared to saline: significantly greater

## glucagon-like peptide I (7-36) [GLP-1]
[3]
  fluorescence anisotropy: 0.045±0.012
[4]
  hydrophilicity/hydrophobicity balance: ~0.987
[5]
  Median blood glucose concentration: 157 mg/dL
[6]
  Median glucose concentration: 157 mg/dL

## polymyxin B [PxB]
[7]
  critical micelle concentration (CMC) of PxB: 1.0 to 2.3 mM
  particle size distribution with scale 10-10,000 nm: did not show peaks
[7]; 0.5 mM PxB, saline alone or with 1.0 mM DSPE-PEG2000, 24 hours
  particle size (diameter), INT-WT NICOMP: approximately 520 nm
[7]; 1.0 mM PxB, 24 hours
  particle size (diameter): 520 nm
[7]; 1.0 mM PxB, saline alone or with 1.0 mM DSPE-PEG2000, 2 hours
  particle size (diameter), INT-WT NICOMP: 240 nm
[7]; 2.3 mM PxB
  large aggregates observed or not: large aggregates were observed
[7]; 2.3 mM PxB, saline alone or with 1 mM DSPE-PEG2000, 2 hours
  particle size (diameter), INT-WT NICOMP: approximately 850 nm
[7]; listed as PxB sulfate
  particle size distribution with scale 10-10,000 nm: no large aggregates
[7]; 6.9 mM PxB, 24 and 48 hour time points
  average particle size (diameter): 517 nm
[7]; 6.9 mM PxB, 48 hours
  particle size (diameter), VOL-WT NICOMP: 4 nm
[7]; 6.9 mM PxB, saline alone or with 1 mM DSPE-PEG2000, 2 hours, listed as PxB sulfate
  particle size (diameter), INT-WT NICOMP: 640 nm
[7]; 6.9 mM PxB, saline alone or with 1 mM DSPE-PEG2000, 48 hours
  particle size (diameter), INT-WT NICOMP: 4 nm
[7]; 6.9 mM PxB, saline alone or with 1 mM DSPE-PEG2000, 48 hours, listed as PxB sulfate
  particle size (diameter), INT-WT NICOMP: 517 nm
[7]; all concentrations tested (0.5-6.9 mM), saline, 2-48 hours
  aggregation of PxB: showed aggregation of the peptide; also recorded: formed aggregates
[7]; range of concentrations tested, 10 μM to 23 mM
  PxB aggregate formation: aggregates formed
[8]
  molecules of PxB per micelle: 3.6
